Measured values from paper PMC5650372 (Oncotarget, 2017).

Key:
[1] = test system: pDNA-PK S2056 in NCI-H441 cells; assay: Western blot quantitation of pDNA-PK S2056; type: cell-based, human
Description: (§1) The cell lysates were subjected to SDS-PAGE and immunoblotting with indicated antibodies. […] The pDNA-PK bands were quantified by Odyssey imaging software (LI-COR, Lincoln, NE) and normalized to total DNA-PK. IC50 values were determined by Excelfit (London, UK).

NHEJ in Cal-51 cells = assay: 384-well image-based cellular NHEJ assay; type: cell-based; details: Homo sapiens; Cal-51, n=3
Description: (§2) ATM and ATR assay and IC50 determination Cellular NHEJ assay
(§3) HA-ATM and FLAG-ATR (HA-labeled ATM, and The experimental design is illustrated in FLAG-labeled ATR) were each transiently expressed in Supplementary Figure 4. Cal-51 breast cancer cells HEK293 cells (293FT cells, Invitrogen Cat: R700-07) were separately transfected with pEGFP plasmid (6085-using Lipofectamine as transfection reagent. Cells were 1, Clontech, Mountain View, CA) digested with either harvested 6 days post transfection and spun down to EcoRI (to measure NHEJ) or StuI (to measure transfection separate cells from media. Cells were then lysed using a efficiency) using a Amaxa cell line nuclearfector kit V lysis buffer (50 mM Tris buffer, (Tris(hydroxylmethyl)- (CCA-1003, Lonza). Immediately after the transfection, aminomethane, pH 7.5), 100 mM NaCl, 50 mM βGOP, the cells were treated with DMSO or compounds at 10% Glycerol, 0.5% Tween 20, 1 mM EDTA, 25 mM indicated concentrations for 24 hours and GFP-positive sodium fluoride (NaF), 20 nM microcystine, 2 mM cells were counted under a fluorescent microscope. NHEJ phenylmethylsulfonylfluoride (PMSF) and protease activity was calculated by the number of GFP-positive inhibitor cocktail) followed by sonication 3 times and a cells in cells transfected with pEGFP-EcoRI divided by final spin at 20,000 rpm for 30 minutes to generate a clear that in cells transfected with pEGFP-StuI, multiplied by lysate. To perform the immunoprecipitation, enzymes were 100. […]
(§4) or FLAG tags. Beads plus enzymes were then washed 3 developed. Different cell lines were transfected using times with lysis buffer and spun down at 1000 rpm for the procedure described above and subsequently seeded 1 minute. Beads plus enzymes were resuspended in lysis into 384-well plates at optimized density for individual buffer and kept at 4°C until assay. Assays for ATM and cell lines. Cells were then treated with compounds at ATR were conducted in a 33P radioactive assay format. increasing concentrations. GFP+ cells were imaged Assay buffer contained the following reagents: 1 mg/mL and quantitated using the IncuCyte (Essen Bioscience, GST-p53 (glutathione S-transferase–p53 fusion protein) Ann Arbor, MI). NHEJ activity was then normalized substrate (expressed in-house), 20 μg/mL calf thymus to the DMSO control and fitted to the Sigmoidal Dose-DNA activator (Sigma), 100 μg/mL BSA, 200 μM EGTA Response Model (IDBS XLFit Model 205; London, UK)

[2] = test system: NHEJ in HCT116 colorectal cancer cells; assay: 384-well image-based cellular NHEJ assay; type: cell-based; details: Homo sapiens, HCT-116; HCT116, n=3
Description: as §2, §3, §4

[3] = test system: NHEJ in MDA-MB-231 breast cancer cells; assay: 384-well image-based cellular NHEJ assay; type: cell-based; details: Homo sapiens; MDA-MB-231, n=3
Description: as §2, §3, §4

[4] = test system: NHEJ in PC3 prostate cancer cells; assay: 384-well image-based cellular NHEJ assay; type: cell-based; details: Homo sapiens; PC3, n=3
Description: as §2, §3, §4

[5] = test system: ATM-proficient cell lines (MDA-MB-231, MCF7, CAL51, HCC1937); assay: Colony-formation assay; type: cell-based, human; details: versus ATM-deficient HCC1187
Description: MCF7, Cal51, MDA-MB-231, H1937, MDA-MB-175VII and HCC1187 human breast cancer cell lines were plated at 2000 cells per well in 6-well plates and HCC1500 breast cancer cell line was plated at 10,000 cells per well in 6-well plates and cultured overnight. Cells were then treated with compounds at indicated concentrations. Media and compounds were changed every three days. Plates were incubated for a total of about two weeks then fixed and stained using the DIFF QUIK staining kit (Microptic, Barcelona, Spain). Colonies were imaged and counted.

[6] = target: T1, DNA-PKcs, XRCC4 and DNA ligase IV on DNA (Homo sapiens, UniProt P78527); assay: DNA end binding assay (MCF7 nuclear extract); type: biochemical; details: 5 μM, MCF7 nuclear extract, 10, 30, 60 minutes
T1 construct: endogenous in cells; host or cells: MCF7 nuclear extract
Description: One kb of DNA fragment, including an EcoRI sequence in the middle, was amplified by PCR using pEGFP as a template and a pair of biotinylated EGFP primers (5′-biotin-[…]-3′ and 5′-biotin-[…]-3′: Valuegene, San Diego, CA). The amplified DNA fragment was cleaved by EcoRI to produce two 0.5 kb biotinylated DNA fragments, and was purified using the QIAquick PCR purification kit (Qiagen). […] An aliquot of the reaction was removed at each time point to separate the supernatant and the beads. The supernatant was subjected to SDS-PAGE and immunoblotting with indicated antibodies. The beads were washed twice with 250 μL of IP buffer (25 mM Hepes-KOH, pH 7.5, 100 mM NaCl, 20% glycerol, 5 mM EDTA, 1 mM DTT, 0.05% Nonidet P-40, 10 mM NaF, and protease inhibitor mixture) and subjected to SDS-PAGE and immunoblotting with indicated antibodies.

[7] = test system: hematological and solid tumor cell lines; assay: Caspase 3/7-Glo apoptosis assay; type: cell-based, human; details: 24 h, subset of hematological and solid tumor cell lines
Description: Proliferation assays were performed as previously described. […] The concentration of compound required for a 2-fold induction of Caspase was determined (CalX).

[8] = test system: pDNA-PK S2056 in HT29 and MDA-MB-436 cells; assay: Immunoblotting of intact cells with bleomycin; type: cell-based, human; details: 5 μM with 1.5 mU/mL bleomycin, 2 or 12 hours
Description: as §1

With `CCN1C(=O)CNc2ncc(-c3ccc(-c4nc[nH]n4)nc3C)nc21` [CC-115, 1-ethyl-7-(2-methyl-6-(1H-1,2,4-triazol-3-yl)pyridin-3yl)-3,4-dihydropyrazino[2,3-b]pyrazin-2(1H)-one] the IC50 ([1]; Homo sapiens, NCI-H441, presence of bleomycin, 2 hrs, n=3, read-out: IC50 of pDNA-PK S2056 inhibition) was 2600 ± 450 nM, the “cellular activity against DNA-PK weaker than against mTOR kinase” value ([1]; NCI-H441) was ~16 fold and the IC50 (NHEJ in Cal-51 cells) was 3.15 ± 1.33 µM. It also gave an IC50 [2] of 6.35 ± 2.98 µM, an IC50 [3] of 2160 ± 910 nM and an IC50 [4] of 2720 ± 1690 nM. The “ATM-proficient cell lines less sensitive to inhibition of colony formation” value [5] was 100 fold, the “DNA-PKcs, XRCC4 and DNA ligase IV bound to DNA over time” value [6] was “retained from 10 minutes through the end of the reaction at 60 minutes” and the “apoptosis induction (Caspase 3/7)” value [7] was “induced strong apoptosis”. For the same compound, the “DNA-PK activity (pDNA-PK S2056)” value [8] was “significantly inhibited”.
